In patent US7282508B2, “Substituted 4-phenyl-4-(1H-imidazol-2-yl)-piperidine derivatives and their use as selective non-peptide delta opioid agonists” (Janssen Pharmaceutica N.V., priority 2001, dated 2007):

melting point [°C]	SMILES
84.2	CCN/C(=N/C#N)N1CCC(c2ccccc2)(c2nccn2Cc2ccccc2)CC1 [Compound 4]
251.6	CCOC(=O)N1CCC(c2ccccc2)(c2nccn2Cc2ccc(C(=O)O)cc2)CC1 [Compound 8]
122.7	O=C(c1ccccc1)N1CCC(c2ccccc2)(c2nccn2Cc2ccccc2)CC1 [Compound 2]
149.1	CCOC(=O)N1CCC(c2ccccc2)(c2nccn2Cc2ccc(C(=O)OC)cc2)CC1 [Compound 3]
